Patent publication US20170298073A1, “SALTS, CO-CRYSTALS, AMORPHOUS FORMS, AND CRYSTALLINE FORMS OF A CO-ACTIVATOR-ASSOCIATED ARGININE METHYLTRANSFERASE 1 (CARM1) INHIBITOR” (Epizyme, Inc, priority 2014, published 2017)
In brackets after ≈: the same amount, converted by molar mass.

Assay: Thermodynamic solubility at room temperature
Format: physicochemical
Conditions: 25 °C, thermodynamic from solid
Description: In an exemplary experiment, the thermodynamic solubilities of the solid forms described herein were determined at room temperature (RT, 25±3° C.).

solubility (organic solvent or mixture, solvent 1,4-Dioxane): > 40 mg/mL
solubility (organic solvent or mixture, solvent 2-Methyl-tetrahydrofuran): > 50 mg/mL
solubility (organic solvent or mixture, solvent Acetic acid): > 44 mg/mL
solubility (organic solvent or mixture, solvent Acetone): > 48 mg/mL
solubility (organic solvent or mixture, solvent Acetonitrile): > 42 mg/mL
solubility (organic solvent or mixture, solvent CHCl3): > 38 mg/mL
solubility (organic solvent or mixture, solvent Dichloromethane): > 36 mg/mL
solubility (organic solvent or mixture, solvent Dimethyl sulfoxide): > 38 mg/mL
solubility (organic solvent or mixture, solvent Dimethylacetamide): > 42 mg/mL
solubility (organic solvent or mixture, solvent EtOAc): > 50 mg/mL
solubility (organic solvent or mixture, solvent EtOH): > 40 mg/mL
solubility (organic solvent or mixture, solvent Isopropanol): > 36 mg/mL
solubility (organic solvent or mixture, solvent Isopropyl acetate): > 36 mg/mL
solubility (organic solvent or mixture, solvent MeOH): > 38 mg/mL
solubility (organic solvent or mixture, solvent Methyl isobutyl ketone): > 34 mg/mL
solubility (organic solvent or mixture, solvent Methyl-tert-butyl ether): < 1.1 mg/mL
solubility (organic solvent or mixture, solvent N-methyl-2-pyrrolidone): > 44 mg/mL
solubility (organic solvent or mixture, solvent THF): > 36 mg/mL
solubility (organic solvent or mixture, solvent Toluene): > 38 mg/mL
solubility (organic solvent or mixture, solvent n-Heptane): < 1.1 mg/mL
solubility (organic solvent or mixture, solvent n-Heptane/THF (1:1 by volume)): 14 to 21 mg/mL (≈ 23.9 to 35.9 mM)
solubility (organic solvent or mixture, solvent n-Heptane/THF (1:2 by volume)): > 42 mg/mL
solubility (organic solvent or mixture, solvent n-Heptane/THF (1:3 by volume)): > 40 mg/mL
solubility (organic solvent or mixture, solvent n-Heptane/THF (2:1 by volume)): 2.6 to 3 mg/mL (≈ 4.44 to 5.13 mM)
solubility (organic solvent or mixture, solvent n-Heptane/THF (4:1 by volume)): < 1.6 mg/mL
solubility (water, solvent H2O): < 1.1 mg/mL
SMILES: CNC[C@@H](O)COc1ccc(Cl)c(-c2nc(-c3c(C)noc3C)c(C)c(N3CC4(CCN(C(=O)OC)CC4)C3)n2)c1 [Form A]
